Source: patent US20230085307A1, “PYRIDAZINONE COMPOUND AND HERBICIDE” (NISSAN CHEMICAL CORPORATION, priority 2019, published 2023)

Tests used:
Japanese bulrush [1] = experiment: Test Example 1: herbicidal activity, application before weed generation under submerged conditions (Table 16, symbol B); assay type: in vivo, Japanese bulrush (Schoenoplectus juncoides); details: amount of applied herbicide 320 g/ha
Summary of the method: (§1)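 Submerged Wagner pots (alluvial soil, 4 cm water) sown with weed seeds and planted with 2.5-leaf rice seedlings; emulsifiable concentrate diluted in water applied to water surface on sowing day. Held in greenhouse at 25-30 °C; injury scored 0-5 by herbicidal rate after three weeks.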

barnyard grass [2] = experiment: Test Example 4: herbicidal effect by soil treatment (Table 19, symbol H); assay type: in vivo, barnyard grass (Echinochloa crus-galli); details: amount of applied herbicide 320 g/ha
Summary of the method: (§2)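 In this soil treatment, the formulated compound reached the seeds only through the soil: seeds were buried about 1.5 cm deep in sterilized diluvial soil, then the diluted emulsion was sprayed over the surface. After three weeks at 25° C. to 30° C. in a greenhouse, effects were graded on criteria from an earlier test.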

green foxtail = experiment: Test Example 4: herbicidal effect by soil treatment (Table 19, symbol G); assay type: in vivo, green foxtail (Setaria viridis); details: amount of applied herbicide 320 g/ha
Summary of the method: as §2

Italian ryegrass [3] = experiment: Test Example 4: herbicidal effect by soil treatment (Table 19, symbol K); assay type: in vivo, Italian ryegrass (Lolium multiflorum); details: amount of applied herbicide 320 g/ha
Summary of the method: as §2

late watergrass [4] = experiment: Test Example 2: herbicidal activity, application during weed generation under submerged conditions (Table 17, symbol A); assay type: in vivo, late watergrass (Echinochloa oryzicola); details: AAH 320 g/ha; application during weed generation, submerged conditions
Summary of the method: (§3)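 3-wk visual-criteria score after one water-surface dose. Emulsion formulation, water-diluted to set rate; applied at 1–2 leaf stage; alluvial soil, 4 cm standing water; seeds co-sown; greenhouse 25–30° C.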

chickweed = experiment: Test Example 4: herbicidal effect by soil treatment (Table 19, symbol P); assay type: in vivo, common chickweed (Stellaria media); details: amount of applied herbicide 320 g/ha
Summary of the method: as §2

redroot pigweed = experiment: Test Example 5: herbicidal effect by foliage application, plastic box (Table 20, symbol N); assay type: in vivo, redroot pigweed (Amaranthus retroflexus); details: for N: redroot pigweed, herbicidal effect grade: foliage application, three weeks after application
Summary of the method: (§4)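 Plants were sown into sterilized diluvial soil under about 1.5 cm cover and kept in a greenhouse at 25° C. to 30° C. Fourteen days on, foliage received an even spray of the diluted emulsion. Herbicidal or crop effect was judged three weeks afterwards.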

Japanese bulrush [5] = experiment: Test Example 2: herbicidal activity, application during weed generation under submerged conditions (Table 17, symbol B); assay type: in vivo, Japanese bulrush (Schoenoplectus juncoides); details: AAH 320 g/ha; application during weed generation, submerged conditions
Summary of the method: as §3

persian speedwell = experiment: Test Example 4: herbicidal effect by soil treatment (Table 19, symbol R); assay type: in vivo, Persian speedwell (Veronica persica); details: amount of applied herbicide 320 g/ha
Summary of the method: as §2

blackgrass [6] = experiment: Test Example 4: herbicidal effect by soil treatment (Table 19, symbol J); assay type: in vivo, blackgrass (Alopecurus myosuroides); details: amount of applied herbicide 320 g/ha
Summary of the method: as §2

blackgrass [7] = experiment: Test Example 5: herbicidal effect by foliage application, plastic box (Table 20, symbol J); assay type: in vivo, blackgrass (Alopecurus myosuroides); details: for J: blackgrass, herbicidal effect grade: foliage application, three weeks after application
Summary of the method: as §4

late watergrass [8] = experiment: Test Example 1: herbicidal activity, application before weed generation under submerged conditions (Table 16, symbol A); assay type: in vivo, late watergrass (Echinochloa oryzicola); details: amount of applied herbicide 320 g/ha
Summary of the method: as §1

wild oat [9] = experiment: Test Example 4: herbicidal effect by soil treatment (Table 19, symbol I); assay type: in vivo, wild oat (Avena fatua); details: amount of applied herbicide 320 g/ha
Summary of the method: as §2

wild oat [10] = experiment: Test Example 5: herbicidal effect by foliage application, plastic box (Table 20, symbol I); assay type: in vivo, wild oat (Avena fatua); details: for I: wild oat, herbicidal effect grade: foliage application, three weeks after application
Summary of the method: as §4

barnyard grass [11] = experiment: Test Example 3: herbicidal effect by foliage application, Wagner pot (Table 18, symbol H); assay type: in vivo, barnyard grass (Echinochloa crus-galli); details: for herbicidal effect on barnyard grass (H): 320 g/ha; for herbicidal effect on H: barnyard grass: amount of applied herbicide 320 g/ha
Summary of the method: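 Plants were sown in alluvial soil held under 0.1–0.5 cm standing water and grown 14 days in a greenhouse at 25–30 °C. An emulsifiable formulation, water-diluted to the set dose, was then sprayed onto the foliage, and effects were scored three weeks later using previously defined criteria.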

Italian ryegrass [12] = experiment: Test Example 5: herbicidal effect by foliage application, plastic box (Table 20, symbol K); assay type: in vivo, Italian ryegrass (Lolium multiflorum); details: for K: Italian ryegrass, herbicidal effect grade: foliage application, three weeks after application
Summary of the method: as §4

velvetleaf = experiment: Test Example 5: herbicidal effect by foliage application, plastic box (Table 20, symbol M); assay type: in vivo, velvetleaf (Abutilon theophrasti); details: for M: velvetleaf, herbicidal effect grade: foliage application, three weeks after application
Summary of the method: as §4

[13] = amount of applied herbicide 320 g/ha, foliage application after 14-day growth, evaluated three weeks after application
[14] = 320 g/ha, foliage application after 14-day growth, evaluated three weeks after application

SMILES | Herbicidal effect, B: Japanese bulrush (Japanese bulrush [1]) | Herbicidal effect by soil treatment, H: barnyard grass (barnyard grass [2]) | Herbicidal effect by soil treatment, G: green foxtail (green foxtail) | Herbicidal effect by soil treatment, K: Italian ryegrass (Italian ryegrass [3]) | herbicidal effect rating, A: late watergrass (late watergrass [4]) | Herbicidal effect by soil treatment, P: chickweed (chickweed) | herbicidal effect rating, B: Japanese bulrush (Japanese bulrush [5]) | Herbicidal effect by soil treatment, R: persian speedwell (persian speedwell) | Herbicidal effect by soil treatment, J: blackgrass (blackgrass [6]) | Herbicidal effect, A: late watergrass (late watergrass [8]) | Herbicidal effect by soil treatment, I: wild oat (wild oat [9]) | herbicidal effect on barnyard grass (H) (barnyard grass [11]) | N: redroot pigweed, herbicidal effect grade (redroot pigweed; 320 g/ha) | J: blackgrass, herbicidal effect grade (blackgrass [7]; 320 g/ha) | I: wild oat, herbicidal effect grade (wild oat [10]; 320 g/ha) | herbicidal effect on H: barnyard grass (barnyard grass [11]) | K: Italian ryegrass, herbicidal effect grade (Italian ryegrass [12]; 320 g/ha) | M: velvetleaf, herbicidal effect grade (velvetleaf; 320 g/ha) | H: barnyard grass, herbicidal effect grade (barnyard grass [2]) | G: green foxtail, herbicidal effect grade (green foxtail) | further results
Cc1nn(C)c(=O)c(-c2c(-c3ccc(Cl)cc3)sc3c(C)cccc23)c1O [4-102] | 0 (Herbicidal rate of 5% or less (almost no effect)) | 0 (Herbicidal rate of 5% or less (almost no effect)) | 0 (Herbicidal rate of 5% or less (almost no effect)) | 3 (Herbicidal rate of 40% or more and less than 70%) | 2 (Herbicidal rate of 20% or more and less than 40%) | 0 (Herbicidal rate of 5% or less (almost no effect)) | 0 (Herbicidal rate of 5% or less (almost no effect)) | 0 (Herbicidal rate of 5% or less (almost no effect)) | 0 (Herbicidal rate of 5% or less (almost no effect)) | 4 (Herbicidal rate of 70% or more and less than 90%) | 0 (Herbicidal rate of 5% or less (almost no effect)) | 1 (Herbicidal rate of 5% or more and less than 20%) |  |  |  |  |  |  |  |  | Herbicidal effect by foliage application, N: redroot pigweed (redroot pigweed; [13]): 5 (Herbicidal rate of 90% or more (almost completely withered)); Herbicidal effect by foliage application, J: blackgrass (blackgrass [7]; [13]): 0 (Herbicidal rate of 5% or less (almost no effect)); Herbicidal effect by foliage application, I: wild oat (wild oat [10]; [13]): 0 (Herbicidal rate of 5% or less (almost no effect)); Herbicidal effect by foliage application, K: Italian ryegrass (Italian ryegrass [12]; [13]): 4 (Herbicidal rate of 70% or more and less than 90%); Herbicidal effect by foliage application, M: velvetleaf (velvetleaf; [13]): 5 (Herbicidal rate of 90% or more (almost completely withered))
CCCC(=O)Oc1c(C)nn(C)c(=O)c1-c1c(-c2ccc3c(c2)OCCO3)sc2cc(F)ccc12 [3-014] | 3 (Herbicidal rate of 40% or more and less than 70%) |  |  |  | 3 (Herbicidal rate of 40% or more and less than 70%) |  | 0 (Herbicidal rate of 5% or less (almost no effect)) |  |  | 5 (Herbicidal rate of 90% or more (almost completely withered)) |  |  | 5 (Herbicidal rate of 90% or more (almost completely withered)) | 1 (Herbicidal rate of 5% or more and less than 20%) | 1 (Herbicidal rate of 5% or more and less than 20%) | 5 (Herbicidal rate of 90% or more (almost completely withered)) | 1 (Herbicidal rate of 5% or more and less than 20%) | 5 (Herbicidal rate of 90% or more (almost completely withered)) |  |  | herbicidal effect, H: barnyard grass (barnyard grass [2]): 0 (Herbicidal rate of 5% or less (almost no effect)); herbicidal effect, G: green foxtail (green foxtail): 0 (Herbicidal rate of 5% or less (almost no effect)); herbicidal effect, K: Italian ryegrass (Italian ryegrass [3]): 0 (Herbicidal rate of 5% or less (almost no effect)); herbicidal effect, P: chickweed (chickweed): 4 (Herbicidal rate of 70% or more and less than 90%); herbicidal effect, R: persian speedwell (persian speedwell): 5 (Herbicidal rate of 90% or more (almost completely withered)); herbicidal effect, J: blackgrass (blackgrass [6]): 0 (Herbicidal rate of 5% or less (almost no effect)); herbicidal effect, I: wild oat (wild oat [9]): 0 (Herbicidal rate of 5% or less (almost no effect))
CCOC(=O)Oc1c(C)nn(C)c(=O)c1-c1c(-c2ccccc2OC)sc2cc(F)ccc12 [3-024] | 0 (Herbicidal rate of 5% or less (almost no effect)) |  |  |  | 2 (Herbicidal rate of 20% or more and less than 40%) |  | 3 (Herbicidal rate of 40% or more and less than 70%) |  |  | 3 (Herbicidal rate of 40% or more and less than 70%) |  |  | 5 (Herbicidal rate of 90% or more (almost completely withered)) | 4 (Herbicidal rate of 70% or more and less than 90%) | 3 (Herbicidal rate of 40% or more and less than 70%) | 5 (Herbicidal rate of 90% or more (almost completely withered)) | 4 (Herbicidal rate of 70% or more and less than 90%) | 5 (Herbicidal rate of 90% or more (almost completely withered)) | 3 (Herbicidal rate of 40% or more and less than 70%) | 3 (Herbicidal rate of 40% or more and less than 70%) | K: Italian ryegrass, herbicidal effect grade (Italian ryegrass [3]): 1 (Herbicidal rate of 5% or more and less than 20%); P: chickweed, herbicidal effect grade (chickweed): 3 (Herbicidal rate of 40% or more and less than 70%); R: persian speedwell, herbicidal effect grade (persian speedwell): 0 (Herbicidal rate of 5% or less (almost no effect)); J: blackgrass, herbicidal effect grade (blackgrass [6]): 1 (Herbicidal rate of 5% or more and less than 20%); I: wild oat, herbicidal effect grade (wild oat [9]): 3 (Herbicidal rate of 40% or more and less than 70%)
CCCC(=O)Oc1c(C)nn(C)c(=O)c1-c1c(-c2ccc(C(F)(F)F)cc2)sc2c(F)cccc12 [4-045] | 2 (Herbicidal rate of 20% or more and less than 40%) | 0 (Herbicidal rate of 5% or less (almost no effect)) | 0 (Herbicidal rate of 5% or less (almost no effect)) | 0 (Herbicidal rate of 5% or less (almost no effect)) | 3 (Herbicidal rate of 40% or more and less than 70%) | 3 (Herbicidal rate of 40% or more and less than 70%) | 0 (Herbicidal rate of 5% or less (almost no effect)) | 3 (Herbicidal rate of 40% or more and less than 70%) | 0 (Herbicidal rate of 5% or less (almost no effect)) | 4 (Herbicidal rate of 70% or more and less than 90%) | 0 (Herbicidal rate of 5% or less (almost no effect)) | 5 (Herbicidal rate of 90% or more (almost completely withered)) |  |  |  |  |  |  |  |  | herbicidal effect on N: redroot pigweed (evaluation grade 0-5) (redroot pigweed; [14]): 4 (Herbicidal rate of 70% or more and less than 90%); herbicidal effect on J: blackgrass (evaluation grade 0-5) (blackgrass [7]; [14]): 0 (Herbicidal rate of 5% or less (almost no effect)); herbicidal effect on I: wild oat (evaluation grade 0-5) (wild oat [10]; [14]): 0 (Herbicidal rate of 5% or less (almost no effect)); herbicidal effect on K: Italian ryegrass (evaluation grade 0-5) (Italian ryegrass [12]; [14]): 5 (Herbicidal rate of 90% or more (almost completely withered)); herbicidal effect on M: velvetleaf (evaluation grade 0-5) (velvetleaf; [14]): 4 (Herbicidal rate of 70% or more and less than 90%)
COc1ccc2c(-c3c(O)c(C)nn(C)c3=O)c(-c3ccc(F)cc3OC)sc2c1 [3-076] | 5 (Herbicidal rate of 90% or more (almost completely withered)) |  |  |  | 3 (Herbicidal rate of 40% or more and less than 70%) |  | 4 (Herbicidal rate of 70% or more and less than 90%) |  |  | 4 (Herbicidal rate of 70% or more and less than 90%) |  | 5 (Herbicidal rate of 90% or more (almost completely withered)) | 5 (Herbicidal rate of 90% or more (almost completely withered)) | 4 (Herbicidal rate of 70% or more and less than 90%) | 4 (Herbicidal rate of 70% or more and less than 90%) |  | 4 (Herbicidal rate of 70% or more and less than 90%) | 3 (Herbicidal rate of 40% or more and less than 70%) | 3 (Herbicidal rate of 40% or more and less than 70%) | 5 (Herbicidal rate of 90% or more (almost completely withered)) | K: Italian ryegrass, herbicidal effect grade (Italian ryegrass [3]): 4 (Herbicidal rate of 70% or more and less than 90%); P: chickweed, herbicidal effect grade (chickweed): 2 (Herbicidal rate of 20% or more and less than 40%); R: persian speedwell, herbicidal effect grade (persian speedwell): 5 (Herbicidal rate of 90% or more (almost completely withered)); J: blackgrass, herbicidal effect grade (blackgrass [6]): 5 (Herbicidal rate of 90% or more (almost completely withered)); I: wild oat, herbicidal effect grade (wild oat [9]): 3 (Herbicidal rate of 40% or more and less than 70%)
